These results are taken from patent US4308168A, “Vapor phase corrosion inhibitor compositions and method of inhibiting corrosion using said compositions” (priority 1978, dated 1981).

Data set [1] in a line: Rust formation on polished carbon steel at a distance of 25 cm in closed vessel (vapor phase, condensed water). The conditions noted are these: 20 mg sample, 5-liter vessel, 20°±2° C., observed 5 hours after water condensation. Details: key: The amount of the rust is less than that in the blank test.; x: The amount of the rust is the same as that in the blank test. As to the method: A laboratory dish containing 20 milligrams of each sample obtained in the preceding Examples was added to a 5-liter glass vessel containing 50 milliliters of 30% aqueous solution of glycerin.
A piece of polished carbon steel (JIS G-4051) was arranged at the upper part of the vessel, at a distance of 25 centimeters from the dish. After keeping the vessel at 20°±2° C. during 1-5 days, water droplets were condensed on a surface of steel from moisture by pouring cold water into an aluminum pipe, and after 5 hours the presence of the rust on the steel piece was observed.

For data set [2] the following is noted: prior-art inhibitors; mineral oil; cited from earlier work.
For data set [3] the following is noted: ambient temperatures; cited from earlier work.
Data set [4] in a line: Oral acute toxicity, LD50 in rats. The conditions noted are these: rat, in vivo, rats weighing 90 grams, fasted 24 hours, one week. As to the method:
Specifics of the chemicals listed in Table 2 were administered orally in various concentration to respective groups of 10 rats weighing 90 grams after fasting for 24 hours.
After oral administration of the chemical, the rats were fed with a sufficient amount of a diet and water and kept in a thermo-hygrostat at a temperature of 25° C. and humidity of 60% during one week to determine the LD50.

Data set [5] can be described thus: Solubility in water.

Turning to `CC(C)(C)OC(=O)CN`, in data set [1], the “presence of rust on steel piece, after leaving for 1 day” value (“presence of rust … for 1 day” below) was “o” and the “presence of rust on steel piece, after leaving for 5 days” value (shortened to “presence of rust … for 5 days”) is on record as “o”.
`C1CCC(NC2CCCCC2)CC1.O=[N+]([O-])O` [DICHAN, dicyclohexylamine nitrate, reference compound]: the solubility in oil entry in data set [2] is “no solubility in oil”. Also, the “distance of diffusion of gas” value in data set [3] was “about 30 cm”. In data set [1], the “presence of rust … for 1 day” value was “x” and the “presence of rust … for 5 days” value was “x”. Moreover, the LD50 (commonly the dose at which mortality reaches 50%) at 168 h in data set [4] turned out to be 200 mg/kg.
With `C1CCC(NC2CCCCC2)CC1` [FERROGUARD], in data set [2], the solubility in oil result is recorded as “only slightly soluble in mineral oil”.
For `CNCC(=O)OC(C)(C)C` [N-methylglycine-tert-butyl ester, N-methylglycine-tert-butylester], in data set [1], the “presence of rust … for 1 day” value is “o” and the “presence of rust … for 5 days” value was “o”.
With `C1CCC(NC2CCCCC2)CC1` [dicyclohexylamine, reference compound], the LD50 at 168 h in data set [4] was 500 mg/kg.
Turning to `CC(C)(C)OC(=O)[C@@H](N)Cc1ccccc1` [phenylalanine-tert-butyl ester, phenylalanine-tert-butylester], in data set [1], the “presence of rust … for 1 day” value is listed as “o” and the “presence of rust … for 5 days” value is listed as “o”.
For the compound `CC(C)(C)OC(=O)[C@@H]1CCCN1` [proline-tert-butyl ester, proline-tert-butylester], in data set [1], the “presence of rust … for 1 day” value is “o” and the “presence of rust … for 5 days” value is on record as “o”. Moreover, the LD50 at 168 h in data set [4] is greater than 5000 mg/kg.
Take `CCOC(=O)C(C)N` (stereo not drawn) [α-alanine ethyl ester]: in data set [1], the “presence of rust … for 1 day” value is “o” and the “presence of rust … for 5 days” value is reported as “o”. Also, in data set [4], the LD50 at 168 h is greater than 5000 mg/kg.
Regarding `CC(N)C(=O)OC(C)(C)C` (stereo not drawn) [α-alanine-tert-butyl ester, α-alanine-tert-butylester], in data set [5], the solubility in water entry is “wholly soluble in water”. Moreover, in data set [1], the “presence of rust … for 1 day” value is given as “o” and the “presence of rust … for 5 days” value is recorded as “o”.
Consider `CC(C)(C)OC(=O)CCN` [β-alanine-tert-butyl ester, β-alanine-tert-butylester], for which the solubility in water result in data set [5] is recorded as “wholly soluble in water”. In data set [1], the “presence of rust … for 1 day” value was “o” and the “presence of rust … for 5 days” value is reported as “o”.
